Test results taken from the supplement of paper PMC11451515.

Key:
Conditions in all cases: 48 h
NOMO1 [1] = experiment: cell viability relative to DMSO control; higher = less cytotoxic
Outline: (§1)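 NOMO1, SEM and P12-Ichikawa leukemia cells spent at least four passages adapting to each medium before use. They were seeded at 500 cells/well (NOMO1, SEM) or 1000 cells/well (P12-Ichikawa) in 5 μl in 1536-well plates and pin-dosed with library compounds in DMSO at 11 threefold steps from 47 μM down to 0.79 nM. After 48 h at 37°C, CellTiter-Glo One luminescence was read. Viability is reported as a percentage of the DMSO wells on each plate, with cell-free wells as background.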

P12-Ichikawa [2] = experiment: as above
Outline: as §1

SEM cells = experiment: as above
Outline: as §1

NOMO1 [3] = experiment: AUC of viability dose-response curve (% viability x log10 dose units); higher = less sensitive
Outline: (§2)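 Leukemia cells adapted to each medium (500 or 1000 cells/well, 1536-well plates) were exposed to library compounds in DMSO for 48 h at 37°C at 11 threefold doses, 47 μM to 0.79 nM. Luminescence by CellTiter-Glo One was normalised per plate to DMSO and cell-free wells, then fitted with a four-parameter log-logistic curve on log10 dose. Curves above full viability were scaled and quality-control failures removed before area under the curve was integrated by trapezoidal rule.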

P12-Ichikawa [4] = experiment: as above
Outline: as §2

CC(=O)OCC(=O)[C@@]12OC(C)(C)O[C@@H]1C[C@H]3[C@@H]4C[C@H](F)C/5=C/C(=O)/C=C\[C@]5(C)[C@@]4(F)[C@@H](O)C[C@]23C
cell viability [%]
Conditions | NOMO1 [1] | P12-Ichikawa [2] | SEM cells
HPLM + 10% dialyzed FBS, 0.000781 µM | 120 | 107 | 67.2
HPLM + 10% dialyzed FBS, 0.00234 µM | 117 | 119 | 84.1
HPLM + 10% dialyzed FBS, 0.00702 µM | 115 | 111 | 74.8
HPLM + 10% dialyzed FBS, 0.0211 µM | 126 | 117 | 70.2
HPLM + 10% dialyzed FBS, 0.0632 µM | 114 | 110 | 79.9
HPLM + 10% dialyzed FBS, 0.19 µM | 115 | 94.7 | 78.5
HPLM + 10% dialyzed FBS, 0.569 µM | 105 | 76.7 | 21.4
HPLM + 10% dialyzed FBS, 1.71 µM | 115 | 74.5 | 20.6
HPLM + 10% dialyzed FBS, 5.12 µM | 112 | 71.6 | 74.8
HPLM + 10% dialyzed FBS, 15.4 µM | 120 | 74.5 | 89.7
HPLM + 10% dialyzed FBS, 46.1 µM | 122 | 72.4 | 67.8
RPMI 5 mM glucose + 10% FBS, 0.000781 µM | 103 | 106 | 103
RPMI 5 mM glucose + 10% FBS, 0.00234 µM | 107 | 128 | 104
RPMI 5 mM glucose + 10% FBS, 0.00702 µM | 103 | 119 | 85.4
RPMI 5 mM glucose + 10% FBS, 0.0211 µM | 119 | 115 | 94.7
RPMI 5 mM glucose + 10% FBS, 0.0632 µM | 114 | 115 | 106
RPMI 5 mM glucose + 10% FBS, 0.19 µM | 109 | 84.2 | 99.4
RPMI 5 mM glucose + 10% FBS, 0.569 µM | 111 | 68.5 | 24.7
RPMI 5 mM glucose + 10% FBS, 1.71 µM | 113 | 70.8 | 21.1
RPMI 5 mM glucose + 10% FBS, 5.12 µM | 116 | 62.1 | 78.5
RPMI 5 mM glucose + 10% FBS, 15.4 µM | 123 | 64.2 | 78.2
RPMI 5 mM glucose + 10% FBS, 46.1 µM | 128 | 67.5 | 76.3
RPMI 5 mM glucose + 10% dialyzed FBS, 0.000781 µM | 109 | 117 | 92.5
RPMI 5 mM glucose + 10% dialyzed FBS, 0.00234 µM | 108 | 107 | 102
RPMI 5 mM glucose + 10% dialyzed FBS, 0.00702 µM | 104 | 114 | 87.9
RPMI 5 mM glucose + 10% dialyzed FBS, 0.0211 µM | 113 | 107 | 85.2
RPMI 5 mM glucose + 10% dialyzed FBS, 0.0632 µM | 111 | 87.8 | 90
RPMI 5 mM glucose + 10% dialyzed FBS, 0.19 µM | 132 | 84.4 | 68.9
RPMI 5 mM glucose + 10% dialyzed FBS, 0.569 µM | 116 | 62.8 | 15.7
RPMI 5 mM glucose + 10% dialyzed FBS, 1.71 µM | 132 | 57.6 | 10.2
RPMI 5 mM glucose + 10% dialyzed FBS, 5.12 µM | 131 | 55.1 | 106
RPMI 5 mM glucose + 10% dialyzed FBS, 15.4 µM | 121 | 54.7 | 95.4
RPMI 5 mM glucose + 10% dialyzed FBS, 46.1 µM | 144 | 56.9 | 75.4

AUC of viability dose-response curve
Conditions | HPLM + 10% dialyzed FBS | RPMI 5 mM glucose + 10% FBS | RPMI 5 mM glucose + 10% dialyzed FBS
NOMO1 [3] | 474 | 440 | 420
P12-Ichikawa [4] | 393 | 370 | 344
